The values that follow come from patent US20100204295A1, “TREATMENT OF ALLERGIC DISEASE WITH IMMUNOMODULATOR COMPOUNDS” (SCICLONE PHARMACEUTICALS, INC., priority 2007, published 2010).

Series [1] has as its system bronchial asthma. The class given is in vivo. The text has this:
Patient B-skii, reported with complaints of dyspnea attacks 6-7 times a day, cough with phlegm that was difficult to discharge, shortness of breath, and nasal obstruction. It is known from the history that, since 1985, they have suffered bronchial asthma, has been hospitalized several times by emergency medical services in the Allergological Department in conjunction with exacerbation of the disease. Since 1997, they have been taking systemic glucocorticoids (Prednisolone 2 tablets/day—maintenance dose). They are also receiving Beklazom LD 250 (up to 1000 μg/day), Flixotide 250 (to 1000 μg/day), prolonged broncholytics (Serevent 25 μg/unit 50 μg/s), Teotard 200 (2 k/day, 400 mg/day). The attacks are treated with salbutamol (Ventolin).
The patient was prescribed the treatment: • 1. Ventolin through a nebulizer during dyspnea attacks—for 2 days, then Astalin (DAI) during dyspnea no more than 3-4 times a day; • 2. Intravenous drip: • 1. Prednisolone 90 nu-60 nu-30 nu in 200.0 mL physiological saline; • 2. Euphylline 2.4%-10.0-5.0 mL. • 3. Heparin 5000 units. • 4. Benacort 200 (800 μg/day). • 5. Prednisolone 4 t/day (8:00, 12:00) • 6. Lazolvan through a nebulizer, then Ambrohexyl 1 t/3 times a day.
During attenuation of the acute condition (on the 8th day of hospitalization), SCV-07 was prescribed in an amount of 0.1 mg in 1.0 mL physiological saline once a day No. 5 daily [sic] intramuscular.
The patient took another examination under dynamic conditions (24 hours after the 5th intramuscular injection of SCV-07): Total blood analysis: erythrocytes—5.12·10^12/L, HB—159 g/L, leukocytes—9.7° 10^9/L, ESR—6 mm/h, b-, e—2%, rod nuclears—5%, segmented nuclears—67%, lymphocytes—20%, M—6%. Blood biochemistry: Sugar—5.7; Total bilirubin—8.9, ALT—0.12, AST—0.13, urea—5.12, creatinine—0.073 General sputum analysis—character—mucous, color gray, consistency viscous, flat epithelium 7-8, alveolar epithelium—none, leukocytes—1-2× in visual field. Hormonal status—cortisol—72.4 Evaluation of immune status

For series [2] the following is noted: in vivo; cited from earlier work.
Series [3] has as its system interleukin-4. In words: ConA-induced IL-4 production by splenocytes after intra-abdominal SCV-07. The following applies: 1 μg/kg, five daily intra-abdominal injections; ConA 5 μg/mL. The class given is in vivo, mice. The method, then:
SCV-07 was administered to intact wild mice in the form of five daily intra-abdominal injections at dosages of 0.1 and 1.0 μg/kg of body weight. After this, isolation of spleen cells was carried out the cytokine synthesis was induced in the culture by stimulating the cells with concanavalin A at a dosage of 5 μg/mL. The levels of the synthesized cytokines were determined by quantitative immunoenzyme analysis. […] The changes on ConA-induced production of two other [sic] cytokines—IFN-γ and IL-4, as is apparent from FIG. 1, were reciprocal in nature.

Series [4] concerns goblet cells in the epithelium of the bronchi. In words: Percentage of goblet cells in the epithelium of the bronchi, ovalbumin asthma model. The format is in vivo, mice of the Balb/C line. From the text:
Female, non-pathogenic mice of the Balb/C line (“Pushchtino” laboratory animal breeders) were kept under conditions of an SPF-vivarium at a constant temperature, 12-hour day/night cycle, and received sterile feed and water ad libitum. In two series of experiments, mice from 6-8 weeks and 18-20 weeks of age were used at the beginning of the experiment, respectively. The animals were immunized twice at 5-day intervals with an ovalbumin solution (Sigma) in an adjuvant based on ammonium sulfate at a dosage of 8 μg per mouse. SCV-07 was administered intra-abdominally in a volume of 200 μL at a dosage of 0.1 or 1.0 μg/kg in PBS once a day from 6 through 11 days after the first immunization. The control group received physiological saline on the same days. Each group comprised 6 to 10 animals. On the 12th, 16th and 20th days after the first immunization, the animals were then placed in a hermetic box, in which an aerosol of 1% ovalbumin solution (OvA) in PBS was generated with an ultrasonic nebulizer LD-207U (Little Doctor) for 1 minute with continuous mixing of air. The duration of exposure of the animals to the aerosol was 15 minutes. […] The number of goblet and epithelial cells on the sections of the bronchi were calculated in no less than five visual fields on sections from the lungs from each animal and expressed as the percentage of the total number of cells.

Series [5] concerns thymocyte and lymphocyte proliferation. The following applies: cited from earlier work.
Setting [6] is: 24 hours after the 5th injection.
Setting [7] is: after 5 intramuscular injections of 0.1 mg.

Turning to `N[C@H](CCC(=O)N[C@@H](Cc1c[nH]c2ccccc12)C(=O)O)C(=O)O` [SCV-07, γ-D-glutamyl-L-tryptophan], in series [1] (setting [6]), the “Immune status: CD3+” value was “CD3^+- 52”, the “Immune status: CD4+” value is recorded as “CD4^+- 36”, the “Immune status: CD8+” value is listed as “CD8^+- 15” and the “Immune status: CD16+” value is given as “CD16^+- 7”. For the same compound, in series [1] (setting [6]), the “Immune status: CD20+” value is “CD20^+-11”, the “Immune status: CD25+” value was “CD25^+-1.3”, the “Immune status: Ig A” value was “Ig A - 1.11” and the “Immune status: Ig G” value is on record as “Ig G - 11.5”. In series [1] (setting [6]), the “Immune status: Ig M” value is given as “Ig M - 0.9”, the “Immune status: NST” value was “NST - 100/163”, the “Immune status: TSIK” value is given as “TSIK - 77” and the “Immune status: κ (NST ratio)” value is given as “κ - 1.6”. Further, the “Immune status: Ig E” value in series [1] (24 hours after the 5th injection, 1130.6 on admission) is “Ig E - 672.1”. Further, in series [1] (setting [7]), the “Clinical dynamics of the disease” value was “elimination of dyspnea attacks, cough, rhinitis” and the “Patient well-being after the course” value is given as “significant improvement of feeling well-being”. For the same compound, in series [1] (after course, 24 per minute on admission), the “Shortness of breath (respiratory rate)” value was 16 per minute. The “Non-toxic dose as multiple of the employed doses” value in series [2] is given as ≥ 100,000 times. In addition, the “Change in ConA-induced production of IL-4 by the splenocytes” value in series [3] was “two-fold reduction”. The “Reduction in the percentage of goblet cells in the epithelium of the bronchi vs control” value in series [4] (0.1 μg/kg, significant vs control) is “more than two-fold reduction”. For the same compound, in series [4] (animals 6 to 8 weeks, 1 μg/kg), the “% goblet cells of total number of cells (median, minimum-maximum)” value is recorded as 36.5 (3-92) %. The “Con-A-induced thymocyte and lymphocyte proliferation” value in series [5] is “increases”.
